Assay results reported in patent US20230211030A1, “SYSTEMS AND METHODS FOR DISINFECTING PLUMBING FIXTURES AND ROOMS WITH PLUMBING FIXTURES” (priority 2021, published 2023).
Read-outs that look alike come from different tables or passages of the source.

Test system: living organisms
Details: for ATP results, Under Rim, front: Before 74; for ATP results, Bowl Surface, left: Before 81; for ATP results, Bowl Surface, front: Before 91; for ATP results, Handle: Before 225; for ATP results, Tub Floor, right of drain: Before 6204
Excerpt: First, a control module or control system was constructed using a Raspberry Pi computer with 7 inch touchscreen monitor, Arduino microcontroller, two electronic breadboards, power supplies, and other electrical interfaces. A computer program written in Python receives inputs from the user via a convenient, single-screen input graphic on the touch screen. The graphic allows the user to independently specify the times that disinfecting fluid is dispensed to the sink, toilet, and shower by pressing up and down keys to increase or decrease minutes and seconds for each time. The time between disinfection cycles or cycle time is also input in the same manner. The graphic allows the chemical pump, 3-MD SC made by Little Giant Pump Co., to be enabled or disabled with the touch of a button. A button to start and stop the disinfecting cycle and also an output telling the user what part of the cycle is being run and how much time is left with that part of the cycle is also provided on the graphic interface screen. […] All chemical lines were made from half inch ID PVC reinforced tubing. Half inch stainless steel ball valves manufactured by U.S. Solid were installed in each branch to each plumbing fixture to control the on/off flow to each plumbing fixture, with the valve electronic actuators being wired to the control module and controlled by the program. The distribution structure conduit or tubing at the plumbing fixtures was customized to the shape and location of each plumbing fixture and was attached to each plumbing fixture in the following manner. […] A plexiglass backsplash was constructed about ten inches in height and 14 inches in width, plus partitions on either side protruding forward from the back panel at 45 degrees to help guide disinfecting fluid into the sink basin. The backsplash was held down to the countertop by a bead of silicone caulk, and the upper branch of tubing was mounted on this backsplash above the faucet. […] Holes were drilled in the tubing into which Quarter Circle Fan Micro Spray nozzles made by Mister Landscaper and available at Lowes were inserted and directed to either spray downward to coat the sink walls directly under the nozzles with disinfecting fluid or outward to spray disinfecting fluid into the sink basin on the opposite side of the sink. […] In this tubing, eleven Half Circle Fan Micro Spray nozzles were inserted with ten directed outwards toward the inner surfaces of the toilet bowl and one directed downwards so as to spray fluid onto a relatively large surface of the toilet bowl in the front of the toilet that sloped more gently and was not easily contacted by spray directed towards the sides. […] The program was configured to first apply disinfecting fluid to the sink for the time inputted for the sink, then the toilet, then the shower. When the cycle begins, the program first opens the ball valve to allow fluid to flow to a particular plumbing fixture, and then the pump is turned on and remains on until the end of the dispensing time, at which point the pump is turned off and the valve is closed. This sequence then repeats sequentially until all three plumbing fixtures have received the prescribed time of disinfecting fluid application.

[1] = Inside Toilet Bowl, After 3.5 Days, 40 secs each hour
[2] = Inside Toilet Bowl, After 6.5 days (40 secs each hour for 3.5 days then 30s each hour for another 3 days)

## hydrogen peroxide [1% H2O2]
Inside Toilet Bowl, After 3.5 Days, 40 secs each hour, Before 17
  ATP results, Bowl Surface, rear: 3 RLU
Inside Toilet Bowl, After 3.5 Days, 40 secs each hour, Before 26
  ATP results, Under Rim, right: 3 RLU
[1]
  ATP results, Under Rim, front: 15 RLU
  ATP results, Bowl Surface, left: 5 RLU
  ATP results, Bowl Surface, front: 21 RLU
Inside Toilet Bowl, After 3.5 Days, 40 secs each hour, Before 173
  ATP results, Bowl Surface (above water), right: 7 RLU
Inside Toilet Bowl, After 3.5 Days, 40 secs each hour, Before 258
  ATP results, Under Rim, left: 1 RLU
Inside Toilet Bowl, After 3.5 Days, 40 secs each hour, Before 3083
  ATP results, Under Rim, rear: 2 RLU
[2]
  ATP results, Under Rim, front: 2 RLU
  ATP results, Bowl Surface, left: 3 RLU
  ATP results, Bowl Surface, front: 5 RLU
Shower/Tub, After 3.5 Days, 40 secs each hour, disinfectant missed handle until adjustments were made
  ATP results, Handle: 5381^2 RLU
Shower/Tub, After 3.5 Days, 40 secs each hour, Before 1789, remained high due to soap scum not being removed
  ATP results, Tub Floor Center: 557^3 RLU
Shower/Tub, After 3.5 Days, 40 secs each hour, Before 4511
  ATP results, Tub Floor, left of drain: 38 RLU
Shower/Tub, After 3.5 Days, 40 secs each hour
  ATP results, Tub Floor, right of drain: 8 RLU
Shower/Tub, After 3.5 Days, 40 secs each hour, Before 6559
  ATP results, Inside Drain: 6 RLU
Shower/Tub, After 3.5 Days, 40 secs each hour, Before 6941
  ATP results, Top of Drain Plug and Drain Collar: 38 RLU
Shower/Tub, After 6.5 days (40 secs each hour for 3.5 days then 30s each hour for another 3 days), after spray adjusted to hit handle
  ATP results, Handle: 16 RLU
Shower/Tub, After 6.5 days (40 secs each hour for 3.5 days then 30s each hour for another 3 days)
  ATP results, Tub Floor, right of drain: 22 RLU
Sink, After 3.5 Days, 40 secs each hour, Before 770
  ATP results, Sink Basin, Right of Drain: 13 RLU
Sink, After 3.5 Days, 40 secs each hour, Before 1876
  ATP results, Sink Counter, left of faucet: 6 RLU
Sink, After 3.5 Days, 40 secs each hour, Before 1951
  ATP results, Inside Drain Collar Wall: 10 RLU
Sink, After 3.5 Days, 40 secs each hour, Before 4351
  ATP results, Top of Drain Plug and Drain Collar: 46 RLU
Sink, After 3.5 Days, 40 secs each hour, Before 6863
  ATP results, Drain Plug, Down Inside Drain (avg): 95 RLU
